Assay results as given in patent publication US20260256870A1, “SKIN COMPOSITION” (Eaderm Co., Ltd., priority 2019, published 2026).
“Also recorded” adds a separate entry of the source.

Tests used:
UVB-irradiated back skin = assay: Barrier function after UVB irradiation (Example 12); type: in vivo, Hairless mice HOS: HR-1
Description: Hairless mice HOS: HR-1 females (7 weeks old) were acclimatized to the experimental environment and then grouped into the 6 groups below, so that the body weight values were nearly uniform. • No ultraviolet irradiation group (n=2) • Ultraviolet (UVB) irradiation+solvent application group (n=4). • Ultraviolet (UVB) irradiation+200 nM apocynin application group (n=4). • Ultraviolet (UVB) irradiation+200 μM apocynin application group (n=4). • Ultraviolet (UVB) irradiation+2 μM Y-27632 application group (n=4). • Ultraviolet (UVB) irradiation+20 μM Y-27632 application group (n=4) In the above solution application group, aqueous solutions of each preparation were applied to hairless mice on their back once a day for five days, starting from the day before ultraviolet irradiation. UVB irradiation was carried out using a Yayoi ultraviolet irradiation system (Y-UV-Lab-K-D5 lamp type) at an intensity of 150 mJ/cm^2 once a day. The stratum corneum water content and TEWL of the irradiated area were measured for each group of mice on the fourth day after the start of ultraviolet irradiation. The measurements were performed using Corneometer CM825 and Tewameter TN300 (Courage+Khazaka, Integral Corporation, Germany) at specific sites on the back of the mice.

[1] = tested on: SDS-induced skin roughness; assay: Skin roughness induced by 10% SDS in hairless mice (Examples 16, 17); type: in vivo, hairless mice (HOS: HR-1)
Source text: Using a skin irritation model induced by a 10% sodium lauryl sulfate (SDS) solution (a test that serves as a standard for chemical-induced skin damage), the present inventors administered a substance that promotes the competitive self-renewal ability of epidermal stem cells (apocynin) and evaluated the effect of the skin roughness-preventing or -ameliorating agent in improving skin roughness. After acclimation of hairless mice (HOS: HR-1) to the experimental environment, the mice were divided into the three groups below, so that the body weight values were nearly uniform. • SDS non-treated group (n=2) • SDS treatment+solvent application group (n=4) • SDS treatment+200 μM apocynin application group (n=4) On the back of hairless mice, a cotton ball soaked in 500 μL of 10% SDS solution (dissolved in 70% ethanol) was applied for 30 min on days 1, 2, 3, and 4. Apocynin was applied to the back every day from the day before the experiment until day 4. For each group of mice on the third day after the start of the experiment, TEWL was measured at specific sites on the back (two sites on the left side and right side symmetrically from the center of the spine) as described above. On the eighth day, the images were taken by PRIMOS-CR (Canfield Scientific, Inc., Integral Corporation), a high-resolution 3D image analysis system. […] Using a skin irritation model induced by 10% sodium lauryl sulfate (SDS) solution, the present inventors administered a substance that promotes the competitive self-renewal ability of epidermal stem cells (ebselen) and evaluated the effect of the skin roughness-preventing or -ameliorating agent in improving skin roughness. […] For each group of mice on the eighth day after the start of the experiment, TEWL was measured at specific sites on the back (two sites on the left side and right side symmetrically from the center of the spine) as described above. […]

[2] = tested on: SDS-induced skin roughness, medial forearm; assay: Human skin roughness induced by 10% SDS (Example 18); type: in vivo
Description: Two subjects were administered with substances that promote the self-renewal ability of epidermal stem cells (apocynin, ebselen, and celecoxib) using a test of skin roughness induced by 10% sodium lauryl sulfate (SDS) solution (a test that serves as a standard for chemical-induced skin damage in humans), and the effect of the skin roughness-preventing or -ameliorating agent in improving skin roughness was evaluated. Six 1.5-cm square areas were placed on the subject's medial forearm, and each was subjected to the treatments below. • SDS non-treated (70% ethanol treatment) group • SDS treatment+solvent (50% ethanol/PBS) application group. • SDS treatment+apocynin (200 μM) solution application group • SDS treatment+ebselen (0.25%) solution application group. • SDS treatment+celecoxib (2%) solution application group A cotton ball permeated with 500 μL of 10% SDS solution (dissolved in 70% ethanol) was applied to the test area for 30 minutes each on day 0 and day 1. Apocynin was applied on day 0 before SDS treatment, applied after treatment, and then applied to the test area once daily until day 9. The TEWL at each test area was measured before and after SDS treatment, and daily from day 1 to day 7. For each area, the TEWL value before SDS treatment was subtracted from the TEWL value on the measurement day, and this value was defined as “ΔTEWL”, and this value was used for evaluation. The test area was photographed with a digital camera and with PRIMOS-CR (Canfield Scientific, Inc., USA, Integral Corporation), a high-resolution three-dimensional image analyzer. For the PRIMOS images, the Primos OMC3_22 software was used to measure the degree of skin roughness in terms of “Ry (maximum height)” and “Rz (ten-point average roughness)”, which are parameters representing surface roughness in the height direction. For each site, the value obtained by subtracting the Rz or Ry value of the SDS non-treated control from the Rz or Ry value on the measurement day was defined as “ΔRz” and “ΔRy”, and these values were used for evaluation.

[3] = tested on: human epidermal keratinocytes; assay: Colony formation assay using human epidermal keratinocytes; type: cell-based
Source text: To test whether COL17A1-mediated SCD maintains clonal proliferation of epidermal stem cell clones, the present inventors used a colony formation assay, which is an in vitro assay said to be the gold standard for assessing the self-renewal ability of epidermal stem cells, including cells in the tail epidermis.

[4] = eighth day, surface of the back, compared to the solvent-applied control group
[5] = apocynin 200 μM, ebselen 0.25%, celecoxib 2%

COc1cc(C(C)=O)ccc1O [Apocynin]
TEWL after ultraviolet irradiation (UVB-irradiated back skin; 200 µM administration group, UVB, fourth day (FIG. 21)): significantly lower
water content of the stratum corneum after ultraviolet irradiation (UVB-irradiated back skin; 200 μM applied, UVB 150 mJ/cm^2, fourth day (FIG. 21)): significantly higher
TEWL on the back ([1]; 200 μM apocynin, third day, compared to the solvent-applied control group (FIG. 28)): significantly lower
Ra (arithmetic mean roughness) [1, 4]: significantly reduced
Rz (ten-point average roughness) [1, 4]: significantly reduced
skin roughness (analysis of skin texture from high-resolution photographs) [2, 5]: significantly reduced
ΔRy [2, 5]: significantly decreased
ΔRz [2, 5]: significantly decreased
ΔTEWL [2, 5]: significantly decreased
pigmentation / healing of the affected area ([2]; day 16, apocynin 200 μM (FIG. 31)): healed; also recorded: almost no pigmentation
Colony area (control ratio) ([3]; Table 1): ⊚ (one double circle (⊚) indicates maintenance of 1.0-1.2-fold)
Colony number (control ratio) ([3]; Table 1): ⊚ (one double circle (⊚) indicates maintenance of 1.0-1.2-fold)
area of colonies per well ([3]; compared to the control (FIG. 16)): significantly increased
number of colonies ([3]; compared to the control, n=3 wells (FIG. 13, FIG. 16)): significantly increased
average size of the top five colonies ([3]; compared to the control, n=3 wells (FIG. 14)): significantly increased
colony size ([3]; human epidermal keratinocytes): significantly increased
number of colonies with a diameter greater than 2 mm ([3]; n=3 wells (FIG. 13 right)): significantly increased
